# Experimental data: patent publication EP2067861A1, “Animals of the rattus genus wherein msh6 expression is functionally decreased and methods for the generation of specific mutants therefrom” (Koninklijke Nederlandse Akademie van Wetenschappen, priority 2007, dated 2009)
# How the values were obtained:
# Control = Control 3 x 40 mg/kg ENU, cited from earlier work
# wild-type males = test: Survival of ENU treated wild-type males (previous studies); assay type: in vivo, rat; conditions: unpublished data
# Description: The efficiency of ENU is dependent of the dose, reflected by a higher mutagenicity after three weekly administrations of low doses of the mutagen compared to a single high-dose injection (Justice et al. (2000) Mamm Genome 11, 484-8). Furthermore it has been shown that higher ENU concentrations increase the mutation frequency (Smits et al. (2004) Pharmacogenet Genomics 16, 159-69; Smits and Cuppen (2006) Trends Genet. 22, 232-40). To determine the optimal ENU concentration we performed an ENU dose-response experiment and determined the fertility of the founders. At 12 weeks of age msh6^-/- males were treated with 3 weekly doses of different concentrations of the mutagen. Fertility was determined after a full cycle of spermatogenesis (± 10 weeks) by breeding and/or histological analysis of the testes. At concentrations of 35, 30 and 25 mg/kg, respectively 1/8, 5/8 and 4/6 males were fertile (Table 5). Compared to earlier studies, where at 40 and 35 mg/kg ENU respectively 6/10 and 10/10 rats are fertile (Smits and Cuppen (2006) Trends Genet. 22, 232-40), this is a considerable decrease. It is known that MSH6 deficiency reduces lifespan in both rats (van Boxtel et al. (2007) submitted) and mice (Edelmann (1997) Cell 91, 467-77) as a result of tumor development. MSH6 deficiency increased ENU sensitivity not only in fertility, but also in survival. […]
# [1] = 362 pups, 37,27 x 10^6 bases screened
compound,measurement,setting,value
"CCN(N=O)C(N)=O [ENU, N-ethyl-N-nitrosourea]",# Mutations - nonsense,Control; [1],0
same,# Mutations - total,Control; [1],30
same,# Mutations - missense,Control,17
same,# Mutations - non-coding,Control,6
same,# Mutations - silent,Control,7
same,Mutation Frequencies,Control; highest ENU-induced mutation frequency in rats,8.05 x 10^-7
same,"survived till 1,5 years of age",wild-type males; 35 mg/kg bodyweight ENU,9 out of 10
same,"survived till 1,5 years of age",wild-type males; 40 mg/kg bodyweight ENU,10 out of 10
